Experimental data published in EP4740948A1 (Dong Wha Pharm. Co., Ltd., priority 2023, dated 2025).

Legend:
[1] = test system: MIA-PaCa-2 cells; assay: Cancer cell proliferation inhibition (Cell Counting Kit-8), pancreatic cancer cell line; assay type: cell-based; conditions: Homo sapiens, MIA PaCa-2, 264 h, 1000 nM, cultured seven to 11 days; read-out: % inhibition rate MIA-Paca2
Summary of the method: (§1)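 After plating 100 to 1,000 cells per well in medium with 10% fetal bovine serum, each line receives 1000 nM compound and is cultured for seven to 11 days. Growth inhibition is derived from CCK-8 signal compared with control cultures.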

[2] = test system: MKN-45 cells; assay: Cancer cell proliferation inhibition (Cell Counting Kit-8), gastric cancer cell line; assay type: cell-based; conditions: Homo sapiens, MKN-45, 264 h, 1000 nM, cultured seven to 11 days; read-out: % inhibition rate MKN -45
Summary of the method: (§2)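 Single 1000 nM dose of test substance, applied to cells seeded at 100–1,000 per well in 10% FBS medium, then culture for seven to 11 days. CCK-8 read-out; inhibition rate expressed as percent relative to untreated control.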

[3] = molecular target: EZH2 (Homo sapiens, UniProt Q15910); assay: AlphaLISA enzyme activity inhibition, EZH2; assay type: biochemical; conditions: for inhibition at 0.005 µM: 5nM test substance; for inhibition at 0.01 µM: 10nM test substance
Chain of EZH2 (Q15910 whole entry, species assumed): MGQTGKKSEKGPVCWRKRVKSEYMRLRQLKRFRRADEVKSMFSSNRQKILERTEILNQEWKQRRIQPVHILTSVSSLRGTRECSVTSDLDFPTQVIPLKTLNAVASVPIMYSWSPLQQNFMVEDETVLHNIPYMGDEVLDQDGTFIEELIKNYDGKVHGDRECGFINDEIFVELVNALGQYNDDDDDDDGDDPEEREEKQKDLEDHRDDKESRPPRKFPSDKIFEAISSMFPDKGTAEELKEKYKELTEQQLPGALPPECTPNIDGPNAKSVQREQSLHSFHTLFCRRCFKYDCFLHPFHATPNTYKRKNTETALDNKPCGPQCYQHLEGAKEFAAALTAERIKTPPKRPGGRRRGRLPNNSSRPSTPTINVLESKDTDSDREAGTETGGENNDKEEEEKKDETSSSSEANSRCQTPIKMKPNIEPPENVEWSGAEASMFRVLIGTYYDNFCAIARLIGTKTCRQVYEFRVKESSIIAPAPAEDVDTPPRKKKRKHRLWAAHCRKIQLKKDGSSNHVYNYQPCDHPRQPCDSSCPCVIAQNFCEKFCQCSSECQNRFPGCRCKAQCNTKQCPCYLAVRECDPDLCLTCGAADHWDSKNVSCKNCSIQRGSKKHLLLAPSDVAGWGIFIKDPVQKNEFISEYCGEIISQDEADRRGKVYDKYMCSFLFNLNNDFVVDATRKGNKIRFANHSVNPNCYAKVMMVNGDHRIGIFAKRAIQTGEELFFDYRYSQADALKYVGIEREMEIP
Chain of EZH2 (O75530 whole entry partner, species assumed): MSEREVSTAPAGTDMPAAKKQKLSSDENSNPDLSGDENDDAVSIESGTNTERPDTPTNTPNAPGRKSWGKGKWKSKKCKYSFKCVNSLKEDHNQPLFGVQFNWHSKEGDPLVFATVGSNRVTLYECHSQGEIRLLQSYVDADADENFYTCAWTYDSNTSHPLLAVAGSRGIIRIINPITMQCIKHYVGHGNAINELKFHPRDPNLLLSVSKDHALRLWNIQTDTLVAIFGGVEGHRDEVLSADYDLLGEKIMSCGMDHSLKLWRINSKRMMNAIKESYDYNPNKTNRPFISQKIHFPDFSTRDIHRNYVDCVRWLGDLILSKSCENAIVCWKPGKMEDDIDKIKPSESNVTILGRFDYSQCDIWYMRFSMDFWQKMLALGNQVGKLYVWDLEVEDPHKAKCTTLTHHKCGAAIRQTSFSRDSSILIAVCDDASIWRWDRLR
Chain of EZH2 (Q15022 whole entry partner, species assumed): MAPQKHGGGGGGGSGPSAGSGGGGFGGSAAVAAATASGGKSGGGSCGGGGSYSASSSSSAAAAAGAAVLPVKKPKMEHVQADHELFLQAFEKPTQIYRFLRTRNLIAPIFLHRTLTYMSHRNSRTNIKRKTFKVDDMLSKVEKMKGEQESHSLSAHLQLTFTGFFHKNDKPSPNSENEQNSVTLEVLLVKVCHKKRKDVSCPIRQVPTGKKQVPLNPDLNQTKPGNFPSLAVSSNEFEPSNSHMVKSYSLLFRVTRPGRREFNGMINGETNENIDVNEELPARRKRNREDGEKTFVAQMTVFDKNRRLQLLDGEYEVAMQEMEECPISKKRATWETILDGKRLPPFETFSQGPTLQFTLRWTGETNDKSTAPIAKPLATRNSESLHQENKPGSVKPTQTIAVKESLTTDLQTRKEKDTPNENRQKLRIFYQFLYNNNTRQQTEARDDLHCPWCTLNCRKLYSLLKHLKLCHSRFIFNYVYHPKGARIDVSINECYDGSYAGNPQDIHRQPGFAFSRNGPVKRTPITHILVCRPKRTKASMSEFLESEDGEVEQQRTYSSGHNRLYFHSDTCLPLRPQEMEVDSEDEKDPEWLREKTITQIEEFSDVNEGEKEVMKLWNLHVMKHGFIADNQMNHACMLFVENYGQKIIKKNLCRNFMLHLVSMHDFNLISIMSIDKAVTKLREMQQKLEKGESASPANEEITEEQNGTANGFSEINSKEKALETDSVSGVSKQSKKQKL
Summary of the method: (§3)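 Enzyme inhibition rate was calculated relative to DMSO from AlphaLISA signal, with acceptor beads added after a 2 h methylation reaction and donor beads 1 h later. Each enzyme, EZH1 or EZH2, was pre-mixed with compound (final 5 nM or 10 nM) in Tris buffer pH 8.0 before histone H3 peptide and SAM initiated the reaction.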

[4] = molecular target: EZH1 (Homo sapiens, UniProt Q92800); assay: AlphaLISA enzyme activity inhibition, EZH1; assay type: biochemical; conditions: for inhibition at 0.005 µM: 5nM test substance; for inhibition at 0.01 µM: 10nM test substance
Chain of EZH1 (Q92800 whole entry, species assumed): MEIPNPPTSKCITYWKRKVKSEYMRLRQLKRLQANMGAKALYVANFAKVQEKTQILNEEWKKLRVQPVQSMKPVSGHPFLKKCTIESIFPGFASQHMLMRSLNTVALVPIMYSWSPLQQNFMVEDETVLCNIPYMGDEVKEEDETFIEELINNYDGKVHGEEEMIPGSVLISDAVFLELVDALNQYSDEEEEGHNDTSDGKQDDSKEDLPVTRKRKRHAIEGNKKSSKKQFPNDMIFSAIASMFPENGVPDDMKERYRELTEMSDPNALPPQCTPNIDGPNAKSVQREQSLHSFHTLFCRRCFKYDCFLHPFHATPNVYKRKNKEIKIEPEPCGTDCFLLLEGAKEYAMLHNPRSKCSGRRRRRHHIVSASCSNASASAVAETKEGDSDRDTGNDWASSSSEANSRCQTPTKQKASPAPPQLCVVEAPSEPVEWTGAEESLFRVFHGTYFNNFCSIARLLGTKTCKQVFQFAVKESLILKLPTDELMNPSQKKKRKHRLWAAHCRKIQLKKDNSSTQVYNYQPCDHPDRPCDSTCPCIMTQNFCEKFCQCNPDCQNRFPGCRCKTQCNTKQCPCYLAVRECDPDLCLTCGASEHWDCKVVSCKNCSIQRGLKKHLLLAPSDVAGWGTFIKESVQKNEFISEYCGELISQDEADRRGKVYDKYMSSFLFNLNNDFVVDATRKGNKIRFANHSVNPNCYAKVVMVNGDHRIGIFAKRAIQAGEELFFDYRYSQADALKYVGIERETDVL
Chain of EZH1 (O75530 whole entry partner, species assumed): as the sequence (O75530 whole entry partner, species assumed) above
Chain of EZH1 (Q15022 whole entry partner, species assumed): as the sequence (Q15022 whole entry partner, species assumed) above
Summary of the method: as §3

[5] = test system: G401 cells; assay: Cancer cell proliferation inhibition (Cell Counting Kit-8), rhabdoid tumor cell line; assay type: cell-based; conditions: Homo sapiens, G-401, 264 h, 1000 nM, cultured seven to 11 days; read-out: % inhibition rate G401
Summary of the method: as §2

[6] = test system: NCI-H1299 cells; assay: Cancer cell proliferation inhibition (Cell Counting Kit-8), lung cancer cell line; assay type: cell-based; conditions: Homo sapiens, NCI-H1299, 264 h, 1000 nM, cultured seven to 11 days; read-out: % inhibition rate NCI-H129 9
Summary of the method: as §1

[7] = test system: SW-13 cells; assay: Cancer cell proliferation inhibition (Cell Counting Kit-8), adrenal cancer cell line; assay type: cell-based; conditions: Homo sapiens, SW13, 264 h, 1000 nM, cultured seven to 11 days; read-out: % inhibition rate SW-13
Summary of the method: as §1

[8] = test system: Lovo cells; assay: Cancer cell proliferation inhibition (Cell Counting Kit-8), colorectal cancer cell line; assay type: cell-based; conditions: Homo sapiens, LoVo, 264 h, 1000 nM, cultured seven to 11 days; read-out: % inhibition rate LoVo
Summary of the method: as §1

| Structure (SMILES) | inhibition at 1 µM [1] [%] | inhibition at 1 µM [2] [%] | inhibition at 0.005 µM [3] [%] | inhibition at 0.01 µM [3] [%] | inhibition at 0.005 µM [4] [%] | inhibition at 0.01 µM [4] [%] | inhibition at 1 µM [5] [%] | inhibition at 1 µM [6] [%] | inhibition at 1 µM [7] [%] | inhibition at 1 µM [8] [%] |
| --- | --- | --- | --- | --- | --- | --- | --- | --- | --- | --- |
| CSc1cc(C)[nH]c(=O)c1CNC(=O)c1cc(-c2ccc(N3CCOCC3)nc2)c2c(c1C)OC(C)(C1CCN(CC(F)(F)F)CC1)O2 (stereo not drawn) [Compound 61, 2,4-dimethyl-N-((6-methyl-4-(methylthio)-2-oxo-1,2-dihydropyridin-3-yl)methyl)-7-(6-morpholinopyridin-3-yl)-2-(1-(2,2,2-trifluoro)piperidin-4-yl)benzo[d][1,3]dioxole-5-carboxamide] | ≤ 30 | 30 to 70 | 86.5 | 99.4 | 53 | 78.2 | ≥ 70 | 30 to 70 | ≤ 30 | ≥ 70 |
| CSc1cc(C)[nH]c(=O)c1CNC(=O)c1cc(-c2cnc(N3CCOCC3)nc2)c2c(c1C)OC(C)(C1CCN(CC(F)(F)F)CC1)O2 (stereo not drawn) [Compound 68, 2,4-dimethyl-N-((6-methyl-4-(methylthio)-2-oxo-1,2-dihydropyridin-3-yl)methyl)-7-(2-morpholinopyrimidin-5-yl)-2-(1-(2,2,2-trifluoro)piperidin-4-yl)benzo[d][1,3]dioxole-5-carboxamide] | ≤ 30 | 30 to 70 | 87.3 | 99.7 | 56.4 | 78.9 | ≥ 70 | ≤ 30 | 30 to 70 | ≥ 70 |
| CCN1CCN(c2ncc(-c3cc(C(=O)NCc4c(SC)cc(C)[nH]c4=O)c(C)c4c3OC(C)(C3CCN(CC(F)(F)F)CC3)O4)cn2)CC1 (stereo not drawn) [Compound 75, 7-(2-(4-ethylpiperazin-1-yl)pyrimidin-5-yl)-2,4-dimethyl-N-((6-methyl-4-(methylthio)-2-oxo-1,2-dihydropyridin-3-yl)methyl)-2-(1-(2,2,2-trifluoroethyl)piperidin-4-yl)benzo[d][1,3]dioxole-5-carboxamide] | ≤ 30 | 30 to 70 | 79 | 99.7 | 61.3 | 86 | ≥ 70 | ≤ 30 | 30 to 70 | ≥ 70 |
| CCN(C)c1ncc(-c2cc(C(=O)NCc3c(SC)cc(C)[nH]c3=O)c(C)c3c2OC(C)(C2CCN(CC(F)(F)F)CC2)O3)cn1 (stereo not drawn) [Compound 78] | ≤ 30 | 30 to 70 | 86.1 | 98.1 | 53.1 | 79.3 | ≥ 70 | ≤ 30 | ≤ 30 | ≥ 70 |
| CSc1cc(C)[nH]c(=O)c1CNC(=O)c1cc(-c2ccc(N3CCCCC3)cc2)c2c(c1C)OC(C)(C1CCN(CC(F)(F)F)CC1)O2 (stereo not drawn) [Compound 90, 2,4-dimethyl-N-((6-methyl-4-(methylthio)-2-oxo-1,2-dihydropyridin-3-yl)methyl)-7-(4-(piperidin-1-yl)phenyl)-2-(1-(2,2,2-trifluoroethyl)piperidin-4-yl)benzo[d][1,3]dioxole-5-carboxamide] | ≤ 30 | ≤ 30 | 60.1 | 82.3 | 20.2 | 16.2 | 30 to 70 | ≤ 30 | ≤ 30 | ≥ 70 |
| CSc1cc(C)[nH]c(=O)c1CNC(=O)c1cc(-c2ccc(N3CCCCC3)nc2)c2c(c1C)OC(C)(C1CCN(CC(F)(F)F)CC1)O2 (stereo not drawn) [Compound 91, 2,4-dimethyl-N-((6-methyl-4-(methylthio)-2-oxo-1,2-dihydropyridin-3-yl)methyl)-7-(6-(piperidin-1-yl)pyridin-3-yl)-2-(1-(2,2,2-trifluoroethyl)piperidin-4-yl)benzo[d][1,3]dioxole-5-carboxamide] | ≤ 30 | ≤ 30 | 47.4 | 71.6 | 24.5 | 41 | 30 to 70 | ≤ 30 | ≤ 30 | ≥ 70 |
| CSc1cc(C)[nH]c(=O)c1CNC(=O)c1cc(-c2cnc(N3CCSCC3)nc2)c2c(c1C)OC(C)(C1CCN(CC(F)(F)F)CC1)O2 (stereo not drawn) [Compound 92, 2,4-dimethyl-N-((6-methyl-4-(methylthio)-2-oxo-1,2-dihydropyridin-3-yl)methyl)-7-(2-thiomorpholinopyrimidin-5-yl)-2-(1-(2,2,2-trifluoroethyl)piperidin-4-yl)benzo[d][1,3]dioxole-5-carboxamide] | ≤ 30 | 30 to 70 | 80.1 | 91.8 | 27.2 | 43.2 | ≥ 70 | ≤ 30 | ≤ 30 | ≥ 70 |
| CSc1cc(C)[nH]c(=O)c1CNC(=O)c1cc(-c2ccc3c(c2)OC(F)(F)O3)c2c(c1C)OC(C)(C1CCN(CC(F)(F)F)CC1)O2 (stereo not drawn) [Compound 93, 2',2'-difluoro-2,7-dimethyl-N-((6-methyl-4-(methylthio)-2-oxo-1,2-dihydropyridin-3-yl)methyl)-2-(1-(2,2,2-trifluoroethyl)piperidin-4-yl)-[4,5'-bibenzo[d][1,3]dioxole]-6-carboxamide] | ≤ 30 | ≤ 30 | 32.2 | 37.9 | 16.8 | 12.7 | ≤ 30 | ≤ 30 | 30 to 70 | ≥ 70 |
| CSc1cc(C)[nH]c(=O)c1CNC(=O)c1cc(-c2ccc3c(c2)OCO3)c2c(c1C)OC(C)(C1CCN(CC(F)(F)F)CC1)O2 (stereo not drawn) [Compound 94, 2,7-dimethyl-N-((6-methyl-4-(methylthio)-2-oxo-1,2-dihydropyridin-3-yl)methyl)-2-(1-(2,2,2-trifluoroethyl)piperidin-4-yl)-[4,5'-bibenzo[d][1,3]dioxole]-6-carboxamide] | ≤ 30 | ≤ 30 | 65.1 | 82 | 25.3 | 28.5 | ≤ 30 | ≤ 30 | ≤ 30 | ≥ 70 |
| CSc1cc(C)[nH]c(=O)c1CNC(=O)c1cc(-c2ccc3c(c2)OCO3)c2c(c1C)OC(C)(C1CCN(CC(F)F)CC1)O2 (stereo not drawn) [Compound 95, 2-(1-(2,2-difluoroethyl)piperidin-4-yl)-2,7-dimethyl-N-((6-methyl-4-(methylthio)-2-oxo-1,2-dihydropyridin-3-yl)methyl)-[4,5'-bibenzo[d][1,3]dioxole]-6-carboxamide] | ≤ 30 | 30 to 70 | 83.2 | 91.1 | 38.1 | 46 | ≥ 70 | ≤ 30 | ≤ 30 | ≥ 70 |
| CSc1cc(C)[nH]c(=O)c1CNC(=O)c1cc(-c2ccc3occc3c2)c2c(c1C)OC(C)(C1CCN(CC(F)(F)F)CC1)O2 (stereo not drawn) [Compound 96, 7-(benzofuran-5-yl)-2,4-dimethyl-N-((6-methyl-4-(methylthio)-2-oxo-1,2-dihydropyridin-3-yl)methyl)-2-(1-(2,2,2-trifluoroethyl)piperidin-4-yl)benzo[d][1,3]dioxole-5-carboxamide] | ≤ 30 | ≤ 30 | 58.4 | 78 | 19.2 | 14.8 | ≤ 30 | ≤ 30 | ≤ 30 | ≥ 70 |
| CSc1cc(C)[nH]c(=O)c1CNC(=O)c1cc(-c2ccc3occc3c2)c2c(c1C)OC(C)(C1CCN(CC(F)F)CC1)O2 (stereo not drawn) [Compound 97, 7-(benzofuran-5-yl)-2-(1-(2,2-difluoroethyl)piperidin-4-yl)-2,4-dimethyl-N-((6-methyl-4-(methylthio)-2-oxo-1,2-dihydropyridin-3-yl)methyl)benzo[d][1,3]dioxole-5-carboxamide] | ≤ 30 | 30 to 70 | 74.7 | 82.3 | 25.9 | 20.5 | 30 to 70 | ≤ 30 | ≤ 30 | ≥ 70 |
